In PubChem BioAssay (NCI):
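Results reflect a 48-hour exposure of cells in 96-well plates to compound at five concentrations. GI50 = concentration required for 50% inhibition of growth. TGI: concentration producing complete growth inhibition.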

Tests used:
Assay in all cases: NCI tumour cell line growth inhibition, 48 h
A498 renal = test system: A498 renal
M14 melanoma = test system: M14 melanoma
UO-31 renal = test system: UO-31 renal
HCT-15 colon = test system: HCT-15 colon
OVCAR-5 ovarian = test system: OVCAR-5 ovarian
SF-539 CNS = test system: SF-539 CNS
KM12 colon = test system: KM12 colon
HL-60(TB) leukemia = test system: HL-60(TB) leukemia
HOP-62 NSCLC = test system: HOP-62 NSCLC
MDA-N = test system: MDA-N
SR leukemia = test system: SR leukemia
A549 NSCLC = test system: A549 NSCLC
SNB-19 CNS = test system: SNB-19 CNS
TK-10 renal = test system: TK-10 renal
BT-549 breast = test system: BT-549 breast
RPMI-8226 leukemia = test system: RPMI-8226 leukemia
IGROV1 ovarian = test system: IGROV1 ovarian
SNB-75 CNS = test system: SNB-75 CNS
HS 578T breast = test system: HS 578T breast
NCI-H226 lung = test system: NCI-H226 lung
HCT-116 colon = test system: HCT-116 colon
U251 CNS = test system: U251 CNS
MDA-MB-435 = test system: MDA-MB-435
MOLT-4 leukemia = test system: MOLT-4 leukemia
OVCAR-3 ovarian = test system: OVCAR-3 ovarian
UACC-62 melanoma = test system: UACC-62 melanoma
NCI-H23 lung = test system: NCI-H23 lung
NCI-H522 lung = test system: NCI-H522 lung
SK-MEL-28 melanoma = test system: SK-MEL-28 melanoma
SF-295 CNS = test system: SF-295 CNS
K-562 leukemia = test system: K-562 leukemia
SW-620 colon = test system: SW-620 colon
COLO 205 colon = test system: COLO 205 colon
SN12C renal = test system: SN12C renal
MALME-3M melanoma = test system: MALME-3M melanoma
HOP-92 NSCLC = test system: HOP-92 NSCLC
SK-MEL-2 melanoma = test system: SK-MEL-2 melanoma
CCRF-CEM leukemia = test system: CCRF-CEM leukemia
OVCAR-8 ovarian = test system: OVCAR-8 ovarian
MCF7 breast = test system: MCF7 breast
EKVX NSCLC = test system: EKVX NSCLC
SK-OV-3 ovarian = test system: SK-OV-3 ovarian
SF-268 CNS = test system: SF-268 CNS
NCI/ADR-RES ovarian = test system: NCI/ADR-RES ovarian
RXF 393 renal = test system: RXF 393 renal
PC-3 prostate = test system: PC-3 prostate
MDA-MB-231 breast = test system: MDA-MB-231 breast
NCI-H460 lung = test system: NCI-H460 lung
DU-145 prostate = test system: DU-145 prostate
786-0 renal = test system: 786-0 renal
HT29 colon = test system: HT29 colon
UACC-257 melanoma = test system: UACC-257 melanoma
ACHN renal = test system: ACHN renal
OVCAR-4 ovarian = test system: OVCAR-4 ovarian
LOX IMVI melanoma = test system: LOX IMVI melanoma
HCC-2998 colon = test system: HCC-2998 colon
SK-MEL-5 melanoma = test system: SK-MEL-5 melanoma
T-47D breast = test system: T-47D breast
CAKI-1 renal = test system: CAKI-1 renal

O=C(O)c1cc2cc(c1)N=Cc1ccccc1OCc1cccc(n1)COc1ccccc1C=N2
TGI (A498 renal): > 25000 nM
TGI (M14 melanoma): > 25000 nM
TGI (UO-31 renal): > 25000 nM
TGI (HCT-15 colon): > 25000 nM
TGI (OVCAR-5 ovarian): > 25000 nM
TGI (SF-539 CNS): > 25000 nM
TGI (KM12 colon): > 25000 nM
TGI (HL-60(TB) leukemia): > 25000 nM
TGI (HOP-62 NSCLC): > 25000 nM
TGI (MDA-N): 9820 nM
TGI (SR leukemia): > 25000 nM
TGI (A549 NSCLC): > 25000 nM
TGI (SNB-19 CNS): > 25000 nM
TGI (TK-10 renal): > 25000 nM
TGI (BT-549 breast): > 25000 nM
TGI (RPMI-8226 leukemia): 22000 nM
TGI (IGROV1 ovarian): > 25000 nM
TGI (SNB-75 CNS): > 25000 nM
TGI (HS 578T breast): 13100 nM
TGI (NCI-H226 lung): > 25000 nM
TGI (HCT-116 colon): > 25000 nM
TGI (U251 CNS): > 25000 nM
TGI (MDA-MB-435): 8250 nM
TGI (MOLT-4 leukemia): > 25000 nM
TGI (OVCAR-3 ovarian): 13200 nM
TGI (UACC-62 melanoma): > 25000 nM
TGI (NCI-H23 lung): > 25000 nM
TGI (NCI-H522 lung): > 25000 nM
TGI (SK-MEL-28 melanoma): > 25000 nM
TGI (SF-295 CNS): 22100 nM
TGI (K-562 leukemia): > 25000 nM
TGI (SW-620 colon): > 25000 nM
TGI (COLO 205 colon): > 25000 nM
TGI (SN12C renal): > 25000 nM
TGI (MALME-3M melanoma): 22400 nM
TGI (HOP-92 NSCLC): > 25000 nM
TGI (SK-MEL-2 melanoma): > 25000 nM
TGI (CCRF-CEM leukemia): > 25000 nM
TGI (OVCAR-8 ovarian): > 25000 nM
TGI (MCF7 breast): > 25000 nM
TGI (EKVX NSCLC): > 25000 nM
TGI (SK-OV-3 ovarian): > 25000 nM
TGI (SF-268 CNS): > 25000 nM
TGI (NCI/ADR-RES ovarian): 15400 nM
TGI (RXF 393 renal): > 25000 nM
TGI (PC-3 prostate): > 25000 nM
TGI (MDA-MB-231 breast): > 25000 nM
TGI (NCI-H460 lung): > 25000 nM
TGI (DU-145 prostate): > 25000 nM
TGI (786-0 renal): > 25000 nM
TGI (HT29 colon): > 25000 nM
TGI (UACC-257 melanoma): > 25000 nM
TGI (ACHN renal): > 25000 nM
TGI (OVCAR-4 ovarian): > 25000 nM

Oc1c(CN2CCCC2)cc(COCc2ccc(Br)cc2)c2cccnc12
GI50 (LOX IMVI melanoma): 370 nM
TGI (LOX IMVI melanoma): 1540 nM
GI50 (A498 renal): 1620 nM
TGI (A498 renal): 5270 nM
GI50 (M14 melanoma): 360 nM
TGI (M14 melanoma): 1770 nM
GI50 (UO-31 renal): 56.9 nM
TGI (UO-31 renal): 903 nM
GI50 (HCT-15 colon): 47.5 nM
TGI (HCT-15 colon): 1720 nM
GI50 (OVCAR-5 ovarian): 2870 nM
TGI (OVCAR-5 ovarian): 13600 nM
GI50 (SF-539 CNS): 1110 nM
TGI (SF-539 CNS): 2850 nM
GI50 (KM12 colon): 621 nM
TGI (KM12 colon): 11300 nM
GI50 (HL-60(TB) leukemia): 355 nM
TGI (HL-60(TB) leukemia): 1430 nM
GI50 (HCC-2998 colon): 901 nM
TGI (HCC-2998 colon): 3610 nM
GI50 (HOP-62 NSCLC): 362 nM
TGI (HOP-62 NSCLC): 2300 nM
GI50 (SR leukemia): 365 nM
TGI (SR leukemia): 2230 nM
GI50 (A549 NSCLC): 914 nM
TGI (A549 NSCLC): 9890 nM
GI50 (SNB-19 CNS): 1020 nM
TGI (SNB-19 CNS): 15400 nM
GI50 (SK-MEL-5 melanoma): 329 nM
TGI (SK-MEL-5 melanoma): 1300 nM
GI50 (TK-10 renal): 474 nM
TGI (TK-10 renal): 10300 nM
GI50 (BT-549 breast): 1810 nM
TGI (BT-549 breast): 6490 nM
GI50 (RPMI-8226 leukemia): 1120 nM
TGI (RPMI-8226 leukemia): 4020 nM
GI50 (IGROV1 ovarian): 793 nM
TGI (IGROV1 ovarian): 5200 nM
GI50 (SNB-75 CNS): 1330 nM
TGI (SNB-75 CNS): 11700 nM
GI50 (T-47D breast): 501 nM
TGI (T-47D breast): 3080 nM
GI50 (HS 578T breast): 2820 nM
TGI (HS 578T breast): 17100 nM
GI50 (NCI-H226 lung): 1050 nM
TGI (NCI-H226 lung): 2960 nM
GI50 (HCT-116 colon): 365 nM
TGI (HCT-116 colon): 3560 nM
GI50 (U251 CNS): 525 nM
TGI (U251 CNS): 2780 nM
GI50 (MDA-MB-435): 1490 nM
TGI (MDA-MB-435): 14400 nM
GI50 (MOLT-4 leukemia): 495 nM
TGI (MOLT-4 leukemia): 2670 nM
GI50 (OVCAR-3 ovarian): 413 nM
TGI (OVCAR-3 ovarian): 1870 nM
GI50 (UACC-62 melanoma): 343 nM
TGI (UACC-62 melanoma): 1720 nM
GI50 (NCI-H23 lung): 969 nM
TGI (NCI-H23 lung): 3330 nM
GI50 (NCI-H522 lung): 297 nM
TGI (NCI-H522 lung): 1170 nM
GI50 (SK-MEL-28 melanoma): 1160 nM
TGI (SK-MEL-28 melanoma): 6310 nM
GI50 (SF-295 CNS): 1190 nM
TGI (SF-295 CNS): 3980 nM
GI50 (K-562 leukemia): 397 nM
TGI (K-562 leukemia): 10300 nM
GI50 (SW-620 colon): 574 nM
TGI (SW-620 colon): 7210 nM
GI50 (COLO 205 colon): 4620 nM
TGI (COLO 205 colon): 18700 nM
GI50 (SN12C renal): 989 nM
TGI (SN12C renal): 5860 nM
GI50 (MALME-3M melanoma): 1440 nM
TGI (MALME-3M melanoma): 5180 nM
GI50 (HOP-92 NSCLC): 1930 nM
TGI (HOP-92 NSCLC): 7560 nM
GI50 (SK-MEL-2 melanoma): 1470 nM
TGI (SK-MEL-2 melanoma): 3970 nM
GI50 (CCRF-CEM leukemia): 443 nM
TGI (CCRF-CEM leukemia): 2650 nM
GI50 (OVCAR-8 ovarian): 398 nM
TGI (OVCAR-8 ovarian): 1940 nM
GI50 (MCF7 breast): 316 nM
TGI (MCF7 breast): 1370 nM
GI50 (EKVX NSCLC): 723 nM
TGI (EKVX NSCLC): 11800 nM
GI50 (SK-OV-3 ovarian): 594 nM
TGI (SK-OV-3 ovarian): 2840 nM
GI50 (SF-268 CNS): 760 nM
TGI (SF-268 CNS): 6280 nM
GI50 (NCI/ADR-RES ovarian): 70.7 nM
TGI (NCI/ADR-RES ovarian): 1130 nM
GI50 (RXF 393 renal): 1040 nM
TGI (RXF 393 renal): 3410 nM
GI50 (PC-3 prostate): 1010 nM
TGI (PC-3 prostate): 5970 nM
GI50 (CAKI-1 renal): 106 nM
TGI (CAKI-1 renal): 2280 nM
GI50 (MDA-MB-231 breast): 851 nM
TGI (MDA-MB-231 breast): 2370 nM
GI50 (NCI-H460 lung): 433 nM
TGI (NCI-H460 lung): 2010 nM
GI50 (DU-145 prostate): 868 nM
TGI (DU-145 prostate): 11000 nM
GI50 (786-0 renal): 484 nM
TGI (786-0 renal): 2590 nM
GI50 (HT29 colon): 3530 nM
TGI (HT29 colon): 13200 nM
GI50 (UACC-257 melanoma): 1340 nM
TGI (UACC-257 melanoma): 3020 nM
GI50 (ACHN renal): 241 nM
TGI (ACHN renal): 1970 nM
GI50 (OVCAR-4 ovarian): 508 nM
TGI (OVCAR-4 ovarian): 3020 nM
